According to US20250290915A1, “METHOD FOR PREDICTING RESPONSIVENESS TO THERAPY” (CANCERTAIN LIMITED, priority 2022, published 2025):

Tested on: Circulating Tumour Cells (CTCs) from a patient with lung cancer (adenocarcinoma)
Assay: Drug response score assay on CTCs (with CD45+ cells for immunotherapy) from blood, Example 5
Assay type: cell-based, human
Conditions: for Drug response score, conc. 1: conc. 1: Niv 20 μg/ml, Gm 2 μg/ml, Vin 20 μg/ml, Gf 100 ng/ml, E 0.75 μg/ml, Afa 20 ng/ml, Metho 0.5 μg/ml, Cz 200 ng/ml, Pal 40 ng/ml (CTCs); for Drug response score, conc. 1 / Drug response score, conc. 2: Pem 20 μg/ml (CTCs + CD45+ cells); for Drug response score, conc. 1 / Drug response score, conc. 2 / Drug response score, conc. 3 / Drug response score, conc. 4: t96h; for Drug response score, conc. 2: conc. 2: Niv 20 μg/ml, Gm 10 μg/ml, Vin 40 μg/ml, Gf 200 ng/ml, E 1.5 μg/ml, Afa 50 ng/ml, Metho 1 μg/ml, Cz 1000 ng/ml, Pal 80 ng/ml (CTCs); for Drug response score, conc. 3: conc. 3: Niv 80 μg/ml, Pem 100 μg/ml (CTCs + CD45+ cells), Gm 20 μg/ml, Vin 80 μg/ml, Gf 600 ng/ml, E 3 μg/ml, Afa 100 ng/ml, Metho 2 μg/ml, Cz 2000 ng/ml, Pal 160 ng/ml (CTCs); for Drug response score, conc. 4: conc. 4: Niv 160 μg/ml, Pem 160 μg/ml (CTCs + CD45+ cells), Gm 40 μg/ml, Vin 200 μg/ml, Gf 1200 ng/ml, E 6 μg/ml, Afa 150 ng/ml, Metho 4 μg/ml, Cz 4000 ng/ml, Pal 320 ng/ml (CTCs); for Drug sensitivity as calculated by the assay (interpretation of Drug Response Scores): Table 17

Substance | Drug response score, conc. 1 | Drug response score, conc. 2 | Drug response score, conc. 3 | Drug response score, conc. 4 | effectiveness on Circulating Tumour Cells (CTCs) under laboratory conditions (lung cancer CTCs) | Drug sensitivity as calculated by the assay (interpretation of Drug Response Scores) (lung cancer CTCs)
Nivolumab | −0.45 | −0.80 | −0.12 | −0.22 | more effective than Pembrozulimab | S++
Pembrolizumab | −0.34 | −0.15 | 0.05 | 0.24 |  | S++
